Results reported in EP3050567B1, “COMPOUND FOR ACTIVATING AMPK AND USES THEREOF” (Energenesis Biomedical Co., Ltd., priority 2013, dated 2015).

Key:
Amyloid β peptide = Amyloid β peptide assay in Neuro2A cells transfected with human APP695 (western blot); type: cell-based, mouse; conditions: 24 h
Method: Effects of adenine on Amyloid β peptide were analyzed in mouse neuroblastoma cell Neuro2A. Neuro2A cells were cultured in high-glucose Dulbecco's modified Eagle's medium (DMEM) containing 10% fetal bovine serum (FBS), 4 mM L-glutamine, 2 mM sodium pyruvate and 1% penicillin/streptomycin (Invitrogen GibcoBRL, Carlsbad, Calif., USA) at 37°C under 5% CO2. Cells were plated at 3 × 10^5 per well (6-well plate). 24 h after plating, cells were transfected with human APP695 and treated with indicated concentration of adenine for 24 h followed by cell lysis and western blot analysis. Equal amounts of protein were separated by SDS-PAGE and then electroblotted on to PVDF membranes. Membranes were blocked with 3% BSA in PBS for 60 min and incubated with an anti-Aβ antibody (1:1,000, abcam), an anti-LC3 antibody (1:1,000, Cell signaling), and an anti-actin antibody (1:5,000, Cell signaling) at 4°C for 16 h followed by the corresponding secondary antibody for 1 h at room temperature (RT). Immunoreactive bands were detected by enhanced chemiluminescence and recorded using Kodakfilm. The detected signals were scanned and then quantified by using TotalLab Quant software (TotalLab).

AMPK = AMPK activation assay (phospho-AMPK Thr172 western blot) in HUVEC cells; type: cell-based, human; conditions: 30 min
Method: Effects of adenine on AMPK activation were evaluated based on the phosphorylation of AMPK protein upon adenine treatment. Mouse muscle cell C2C12, mouse fibroblast 3T3, human liver carcinoma cell Hep G2, human breast adenocarcinoma cell line MCF7 and human colon adenocarcinoma grade II cell line HT29, human umbilical vein endothelial cell HUVEC, Human acute monocytic leukemiacell THP1, human macrophage cell U937, murine microglia cell BV-2, and mouse neuroblastoma cell Neuro2A and dermal papilla cell were cultured in high-glucose Dulbecco's modified Eagle's medium (DMEM) containing 10% fetal bovine serum (FBS), 4 mM L-glutamine, 2 mM sodium pyruvate and 1% penicillin/streptomycin (Invitrogen GibcoBRL, Carlsbad, Calif., USA) at 37°C, under 5% CO2. Cells were plated at 3 × 10^5 per well in 6-well plates. Twenty-four hours after plating, adenine was added to the culture media as indicated. After 30 min cells were lysed and subject to western blot analysis. Equal amount of protein from each sample was separated by SDS-PAGE and then electroblotted on to PVDF membranes. Membranes were blocked with 3% BSA in PBS for 60 min and incubated with an anti-phospho-AMPK (Thr172) antibody (1:2,000, Cell signaling) or an anti-AMPK antibody (1:2,000, Cell signaling) at 4°C for 16 h followed by the corresponding secondary antibody for 1 h at room temperature (RT). Immunoreactive bands were detected by enhanced chemiluminescence and recorded using Kodak film. The detected signals were scanned and then quantified using TotalLab Quant software (TotalLab).

TNFα = test: LPS-induced inflammatory response in THP1 macrophages, secreted TNFα (ELISA); type: cell-based, human; conditions: 50 ng LPS 6 hr
Method: Effects of adenine on inflammatory response were evaluated in human THP1 macrophage by examining protein level of intracellular COX-2 and secreted TNFα, IL-1β and IL-6. Differentiation of THP1 monocytes into macrophages was induced by 50 nM PMA for 24 hr. THP1 macrophages were further stimulated by 50 ng LPS for 6 hr in the presence of 10-600 µM of adenine or vehicle followed by cell lysis and western blot analysis. Equal amounts of protein were separated by SDS-PAGE and then electroblotted on to PVDF membranes. Membranes were blocked with 3% BSA in PBS for 60 min and incubated with an anti-COX-2 antibody (1:1,000, Cell signaling), an anti-actin antibody (1:5,000, Cell signaling) at 4° C for 16 h followed by the corresponding secondary antibody for 1 h at room temperature (RT). Immunoreactive bands were detected by enhanced chemiluminescence and recorded using Kodak film. The detected signals were scanned and then quantified using TotalLab Quant software (TotalLab). The secreted TNFα, IL-1β and IL-6 were analyzed by enzyme-linked immunosorbent assays.

Nc1ncnc2nc[nH]c12 [Adenine, adenine]
sAβ level (% of control) (Amyloid β peptide; Neuro2A cells transfected with human APP695, adenine 10 microM): 89 ± 7.5 % of control | sAβ level (% of control) (Amyloid β peptide; Neuro2A cells transfected with human APP695, adenine 20 microM): 63 ± 2.2 % of control | sAβ level (% of control) (Amyloid β peptide; Neuro2A cells transfected with human APP695, adenine 30 microM): 48.1 ± 1.7 % of control | sAβ level (% of control) (Amyloid β peptide; Neuro2A cells transfected with human APP695, adenine 40 microM): 31.7 ± 5.1 % of control | sAβ level (% of control) (Amyloid β peptide; Neuro2A cells transfected with human APP695, adenine 50 microM): 29.4 ± 3.6 % of control | AMPK activation (fold to control) (AMPK; adenine 1 microM): 1.2 fold to control | AMPK activation (fold to control) (AMPK; adenine 10 microM): 1.9 fold to control | AMPK activation (fold to control) (AMPK; adenine 100 microM): 3.2 fold to control | AMPK activation (fold to control) (AMPK; adenine 200 microM): 3.9 fold to control | AMPK activation (fold to control) (AMPK; adenine 600 microM): 4.1 fold to control | TNFα (% to control) (TNFα; adenine 10 microM): 85±9.1 % to control | TNFα (% to control) (TNFα; adenine 100 microM): 41±2.6 % to control | TNFα (% to control) (TNFα; adenine 600 microM): 23±1.8 % to control
